From ChEMBL document CHEMBL1201862, “PubChem BioAssay data set” (2004) come the findings set out here.

Among the test systems are A549; ACHN; CAKI-1; HCC 2998; K562; KM12; M14; MCF7; MDA-MB-231; MDA-MB-435; Malme-3M; NCI-H23; OVCAR-4; SK-MEL-28; SK-OV-3; SN12C; SNB-75; SR; U-251; MDA-N.
Common to all, as to assay: NCI tumour cell line growth inhibition, 48 h

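Assay format: 96-well plates, 48-hour exposure. At the GI50, growth is halved.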 Activity calls are given as the source filed them. No stated cut-off is given here; in the data, active = GI50 up to about 1.1 µM and inactive = higher.

For `COC(=O)CCC(C)[C@H]1CCC2C3C(C[C@H](OC(C)=O)[C@@]21C)[C@@]1(C)CCC2(C[C@H]1C[C@H]3OC(C)=O)OOC1(CCC(C(C)(C)C)CC1)OO2` (some centres undefined), the GI50 in the test with A549 was 7.24 µM (inactive); in the test on ACHN it was 5.7 µM (inactive); with CAKI-1 it was 12.8 µM (inactive); in the test with HCC 2998, 46.3 µM (inactive); in the test on K562, 8.69 µM (inactive); in the test on KM12, 14.1 µM (inactive). Also, the GI50 in the test on M14 was > 100 µM (inactive); in the test with MCF7, 31.4 µM (inactive); in the test with MDA-MB-231 it was 46.3 µM (inactive); in the test with MDA-MB-435 it was 56 µM (inactive); in the test with Malme-3M, 64.3 µM (inactive); in the test on NCI-H23, 9.42 µM (inactive). Besides, the GI50 in the test with OVCAR-4 was 15.6 µM (inactive); in the test with SK-MEL-28, > 100 µM (inactive); with SK-OV-3, > 100 µM (inactive); in the test on SN12C, 58.2 µM (inactive); with SNB-75, 37.9 µM (inactive); with SR, 4.45 µM (inactive). The GI50 in the test with U-251 is 6.73 µM (inactive).
In the case of `COC(=O)c1csc(-c2nc(CCNC(=O)OC(C)(C)C)sc2Br)n1`, the GI50 with A549, in the test on ACHN, in the test on HCC 2998, with K562, with KM12 and in the test with M14 was > 100 µM (inactive) throughout. Besides, the GI50 in the test on MCF7, with MDA-MB-435, in the test on MDA-N, in the test with Malme-3M, with NCI-H23 and in the test on SK-MEL-28 was > 100 µM (inactive) throughout. The GI50 is > 100 µM (inactive) in the test on SK-OV-3; > 100 µM (inactive) in the test on SN12C; > 100 µM (inactive) in the test with SNB-75; 81.8 µM (inactive) in the test with SR; > 100 µM (inactive) in the test with U-251.
For the molecule `CCCCN(CCCC)C(=C(C(Cl)=C(Cl)Cl)[N+](=O)[O-])N(CCCC)CCCC`, the GI50 in the test on A549 was > 100 µM (inactive); in the test on ACHN, > 100 µM (inactive); in the test with CAKI-1 it was > 100 µM (inactive); in the test on K562 it was 0.0119 µM (active); in the test on KM12 it was 72.1 µM (inactive); in the test with M14 it was > 100 µM (inactive). The GI50 in the test on MDA-MB-231 is 65.2 µM (inactive); in the test with MDA-MB-435, > 100 µM (inactive); with MDA-N, > 100 µM (inactive); in the test on Malme-3M, > 100 µM (inactive); with NCI-H23, 82.2 µM (inactive); in the test with OVCAR-4, > 100 µM (inactive). Besides, the GI50 with SK-MEL-28 is > 100 µM (inactive); with SK-OV-3, > 100 µM (inactive); with SN12C, > 100 µM (inactive); with SNB-75, > 100 µM (inactive); in the test with U-251, 45.9 µM (inactive).
Turning to `Cc1ccc(/C=c2\c(=O)[nH]c3nc4ccccc4c(=O)n23)cc1`, the GI50 in the test on A549 was 94.4 µM (inactive); with ACHN it was > 100 µM (inactive); in the test with CAKI-1 it was > 100 µM (inactive); with HCC 2998, 25.4 µM (inactive); in the test on KM12 it was 45.7 µM (inactive); with M14, 37.5 µM (inactive). Besides, the GI50 was 39.8 µM (inactive) in the test on MCF7; 43.9 µM (inactive) in the test with MDA-MB-231; 24.9 µM (inactive) with MDA-MB-435; 23.8 µM (inactive) in the test on MDA-N; 45.5 µM (inactive) in the test with Malme-3M; 34.4 µM (inactive) in the test with NCI-H23. The GI50 in the test with OVCAR-4 was > 100 µM (inactive); in the test with SK-MEL-28, 43.9 µM (inactive); in the test with SK-OV-3, > 100 µM (inactive); in the test with SN12C, 28.8 µM (inactive); with SNB-75, 28.6 µM (inactive); in the test with U-251, 19.9 µM (inactive).
`CC(=O)N(C(=O)CC(=O)N1N=C(c2ccccc2)C(/N=N/c2ccccc2[N+](=O)[O-])C1=O)c1ccc(Cl)cc1` (centres undefined): the GI50 with A549, with ACHN, with CAKI-1, in the test on HCC 2998, with K562 and with KM12 was > 10 µM (inactive) each time. Moreover, the GI50 with MCF7, with MDA-MB-231, with MDA-MB-435, in the test on MDA-N, in the test with Malme-3M and in the test on NCI-H23 was > 10 µM (inactive) each time. Moreover, the GI50 with OVCAR-4 was > 10 µM (inactive); in the test with SK-MEL-28, > 10 µM (inactive); in the test with SK-OV-3, > 10 µM (inactive); with SN12C, > 10 µM (inactive); with SNB-75, 9.55 µM (inactive); in the test on U-251, > 10 µM (inactive).
Regarding `CCOC(=O)C(CC(C)C)NC(=O)C(N)Cc1ccc(N(CCCl)CCCl)cc1` (centres undefined), the GI50 is 6.95 µM (inactive) in the test with A549; 0.333 µM (active) with ACHN; 3.11 µM (inactive) in the test with CAKI-1; 7.35 µM (inactive) with HCC 2998; 1.58 µM (inactive) in the test with K562; 12.9 µM (inactive) in the test on KM12. Also, the GI50 in the test with M14 is 2.83 µM (inactive); in the test on MDA-MB-231, 15.7 µM (inactive); in the test on MDA-MB-435, 16.9 µM (inactive); in the test on MDA-N, 12.6 µM (inactive); in the test on Malme-3M it was 1.75 µM (inactive); in the test with NCI-H23, 1.57 µM (inactive). Also, the GI50 in the test with OVCAR-4 was 1.6 µM (inactive); with SK-MEL-28, 4.81 µM (inactive); in the test with SK-OV-3, 3.65 µM (inactive); with SN12C it was 5.6 µM (inactive); with SNB-75 it was 3.94 µM (inactive); with SR, 0.0232 µM (active). Also, in the test on U-251, the GI50 is 3.79 µM (inactive).
As to `COc1cc2c(cc1OC)-c1cc3cc(OC)c(OC)cc3c(C)[n+]1CC2.O=C([O-])CS(=O)(=O)O`, the GI50 in the test with A549 is > 100 µM (inactive); in the test on ACHN, > 100 µM (inactive); with CAKI-1, > 100 µM (inactive); in the test with HCC 2998, 19.3 µM (inactive); with KM12, 26.3 µM (inactive); in the test on M14 it was > 100 µM (inactive). Besides, the GI50 in the test with MCF7 was 46.3 µM (inactive); in the test with MDA-MB-231 it was > 100 µM (inactive); in the test on MDA-MB-435, 76.4 µM (inactive); with MDA-N, 89.3 µM (inactive); in the test on Malme-3M, 29.3 µM (inactive); in the test on NCI-H23 it was 35.4 µM (inactive). Moreover, the GI50 with OVCAR-4 was > 100 µM (inactive); in the test on SK-MEL-28, > 100 µM (inactive); in the test on SK-OV-3 it was 79.1 µM (inactive); in the test on SN12C, 37.6 µM (inactive); in the test on U-251, 15 µM (inactive).
Consider `CC(=O)C1C(=O)C(=O)N(c2ccc([N+](=O)[O-])cc2Cl)C1=O` (centres undefined), for which the GI50 with A549, in the test with ACHN, with CAKI-1, in the test with HCC 2998, with KM12 and in the test with M14 was > 100 µM (inactive) in each case. The GI50 with MCF7, in the test on MDA-MB-231, in the test on MDA-MB-435, in the test with MDA-N, with NCI-H23 and in the test with OVCAR-4 was > 100 µM (inactive) each time. The GI50 with SK-MEL-28, in the test with SK-OV-3, in the test on SN12C, in the test on SNB-75 and in the test on U-251 was > 100 µM (inactive) in each case.
With `COc1cc(C(c2c(O)c3ccccc3oc2=O)c2c(O)c3ccccc3oc2=O)ccc1O`, the GI50 is 59.7 µM (inactive) with A549; 22.6 µM (inactive) in the test with ACHN; 20.8 µM (inactive) in the test with CAKI-1; 18.9 µM (inactive) in the test with HCC 2998; 39.4 µM (inactive) in the test with K562; 32.7 µM (inactive) with KM12. Besides, the GI50 is 18.1 µM (inactive) in the test on M14; 19.3 µM (inactive) in the test on MCF7; 21.1 µM (inactive) in the test with MDA-MB-231; 33 µM (inactive) with MDA-MB-435; 19.9 µM (inactive) with MDA-N; 19 µM (inactive) in the test with Malme-3M. Further, the GI50 in the test on NCI-H23 is 39 µM (inactive); in the test with OVCAR-4, 49.1 µM (inactive); in the test with SK-MEL-28, 16.7 µM (inactive); with SK-OV-3, > 100 µM (inactive); in the test with SN12C, 19.1 µM (inactive); in the test with SNB-75, 20.7 µM (inactive). For the same molecule, the GI50 with U-251 is 22.9 µM (inactive).
Consider `Oc1cc(Cc2ccccc2)c(Cc2ccccc2)cc1O`, for which the GI50 in the test with A549, in the test with ACHN, in the test on CAKI-1, in the test with HCC 2998, with K562 and in the test with KM12 was > 10 µM (inactive) each time. Moreover, the GI50 was > 10 µM (inactive) in the test with M14; > 10 µM (inactive) in the test on MCF7; > 10 µM (inactive) in the test with MDA-MB-231; > 10 µM (inactive) in the test with MDA-MB-435; 1.67 µM (inactive) in the test on MDA-N; > 10 µM (inactive) with Malme-3M. Moreover, the GI50 is > 10 µM (inactive) in the test on NCI-H23; > 10 µM (inactive) with OVCAR-4; > 10 µM (inactive) in the test on SK-MEL-28; > 10 µM (inactive) in the test on SK-OV-3; > 10 µM (inactive) with SN12C; 4.62 µM (inactive) in the test on SNB-75. The GI50 in the test with U-251 is > 10 µM (inactive).
`O=[N+]([O-])c1nccn1CC1OC(n2ccnc2[N+](=O)[O-])C(O)C(O)C1O` (centres undefined): the GI50 with A549, with ACHN, in the test with HCC 2998, with K562, with KM12 and in the test on M14 was > 100 µM (inactive) in each case. The GI50 in the test on MCF7, in the test with MDA-N, with Malme-3M, with NCI-H23, in the test with SK-MEL-28 and in the test with SNB-75 was > 100 µM (inactive) throughout. The GI50 with SR and with U-251 was > 100 µM (inactive) throughout.
